In US5707966A, “Antithrombotic agents” (Eli Lilly and Company, priority 1995, dated 1998):
Counter-ions that a name gives are not always drawn. Like-named read-outs stand apart in the source and are kept apart here.

How the values were obtained:
Assay type in all cases: biochemical
Human plasma [1] = experiment: Human plasma anticoagulation, activated partial thromboplastin time (APTT); settings: concentration required to double the APTT, linear extrapolation
Protocol: (§1) Dog plasma and rat plasma is obtained from conscious mixed-breed hounds (either sex, Hazelton-LRE, Kalamazoo, Mich., U.S.A.) or from anesthetized male Sprague-Dawley rats (Harlan Sprague-Dawley, Inc., Indianapolis, Ind., U.S.A.) by venipuncture into 3.8 percent citrate. Fibrinogen is prepared from in-date ACD human blood as the fraction I-2 according to previous procedures and specifications. […] Human fibrinogen is also purchased as 98 percent pure/plasmin free from American Diagnostica, Greenwich, Conn. Coagulation reagents ACTIN, Thromboplastin, and Human plasma are from Baxter Healthcare Corp., Dade Division, Miami, Fla. Bovine thrombin from Parke-Davis ([…], Mich.) is used for coagulation assays in plasma.
(§2) Coagulation assay procedures are as previously described. […] A CoAScreener coagulation instrument (American LABor, Inc.) is used for all coagulation assay measurements. The prothrombin time (PT) is measured by adding 0.05 mL saline and 0.05 mL Thromboplastin-C reagent to 0.05 mL test plasma. The activated partial thromboplastin time (APTT) is measured by incubation of 0.05 mL test plasma with 0.05 mL Actin reagent for 120 seconds followed by 0.05 mL CaCl2 (0.02M). The thrombin time (TT) is measured by adding 0.05 mL saline and 0.05 mL thrombin (10 NIH units/mL) to 0.05 mL test plasma. The compounds of Formula I are added to human or animal plasma over a wide range of concentrations to determine prolongation effects on the APTT, PT, and TT assays. Linear extrapolations are performed to estimate the concentrations required to double the clotting time for each assay.

Bovine trypsin = molecular target: T1, Bovine trypsin (Bos taurus, UniProt P00760); experiment: Kass with trypsin, chromogenic substrate; settings: substrate N-Benzoyl-Phe-Val-Arg-p-nitroanilide
T1 construct: Bovine trypsin is purchased; purchased Worthington Biochemicals, Freehold, N.J
T1 sequence (P00760 24-246): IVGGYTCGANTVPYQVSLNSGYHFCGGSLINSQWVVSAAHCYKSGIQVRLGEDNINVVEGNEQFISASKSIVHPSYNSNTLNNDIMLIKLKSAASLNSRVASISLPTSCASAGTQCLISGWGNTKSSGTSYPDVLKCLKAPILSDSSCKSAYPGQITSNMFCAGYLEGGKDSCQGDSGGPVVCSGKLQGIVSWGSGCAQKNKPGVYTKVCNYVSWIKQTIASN
Protocol: By substantially following the procedures described above for human thrombin, and using other human blood coagulation system serine proteases and proteases of the fibrinolytic system with the appropriate chromogenic substrates, identified below, selectivity of the compounds of the present invention with respect to the coagulation factor serine proteases and with respect to the fibrinolytic system serine proteases are evaluated as well as their substantial lack of interference with serine proteases of the fibrinolytic system. Thrombin inhibitors preferably should spare fibrinolysis induced by urokinase, tissue plasminogen activator (t-PA) and streptokinase. This would be important to the therapeutic use of such agents as an adjunct to streptokinase, t-PA or urokinase thrombolytic therapy and to the use of such agents as an endogenous fibrinolysis-sparing (with respect to t-PA and urokinase) antithrombotic agent. In addition to the lack of interference with the amidase activity of the fibrinolytic proteases, such fibrinolytic system sparing can be studied by the use of human plasma clots and their lysis by the respective fibrinolytic plasminogen activators.
Human factors X, Xa, IXa, XIa, and XIIa are purchased from Enzyme Research Laboratories, South Bend, Ind.; human urokinase from Leo Pharmaceuticals, Denmark; and recombinant activated Protein C (aPC) is prepared at Eli Lilly and Co. substantially according to U.S. Patent No. 4,981,952. Chromogenic substrates: N-Benzoyl-Ile-Glu-Gly-Arg-p-nitroanilide (for factor Xa); N-Cbz-D-Arg-Gly-Arg-p-nitroanilide (for factor IXa assay as the factor Xa substrate); Pyroglutamyl-Pro-Arg-p-nitroanilide (for Factor XIa and for aPC); H-D-Pro-Phe-Arg-p-nitroanilide (for factor XIIa); and Pyroglutamyl-Gly-Arg-p-nitroanilide (for urokinase); are purchased from KabiVitrum, Stockholm, Sweden, or from Midwest Biotech, Fishers, Ind. Bovine trypsin is purchased from Worthington Biochemicals, Freehold, N.J., and human plasma kallikrein from Kabi Vitrum, Stockholm, Sweden. Chromogenic substrate H-D-Pro-Phe-Arg-p-nitroanilide for plasma kallikrein is purchased from Kabi Vitrum, Stockholm, Sweden. N-Benzoyl-Phe-Val-Arg-p-nitroanilide, the substrate for human thrombin and for trypsin, is synthesized according to procedures described above for the compounds of the present invention, using known methods of peptide coupling from commercially available reactants or purchased from Midwest Biotech, Fishers, Ind.

Human Thrombin = Human Thrombin (Homo sapiens, UniProt P00734); experiment: Inhibition of amidase activity of thrombin (Kass)
Human plasma [2] = experiment: Human plasma anticoagulation, prothrombin time (PT); settings: concentration required to double the PT, linear extrapolation
Protocol: as §1, §2

Human plasma [3] = experiment: Human plasma anticoagulation, thrombin time (TT); settings: concentration required to double the thrombin time, linear extrapolation
Protocol: as §1, §2

[4] = mean over a range of concentrations, […]

## CCS(=O)(=O)N[C@H](Cc1ccccc1)C(=O)N1CCC[C@H]1C(=O)NCCc1cccc(NC(=N)N)c1 [Example 37, EtSO2 -D-Phe-Pro-m-NHCH2 CH2 C6 H4 NHC(NH)NH2.HCl]
Human plasma [1]
  Human Plasma Anticoagulation 2× Clotting time APTT: > 9,000 ng/mL
Bovine trypsin
  Kass Trypsin: < 0.009 × 10^6 (L/mole)
Human Thrombin; [4]
  Kass Human Thrombin: 0.02 × 10^6 (L/mole)
Human plasma [2]
  Human Plasma Anticoagulation 2× Clotting time PT: > 9,000 ng/mL
Human plasma [3]
  Human Plasma Anticoagulation 2× Clotting time TT: > 9,000 ng/mL

## N=C(N)c1ccc(CNC(=O)[C@@H]2CCCN2C(=O)[C@@H](CC2CCCCC2)NCC(=O)O)nc1 [Example 66, HO2 CCH2 -D-Cha-Pro-2-NHCH2 -5-amidinopyridine.HCl]
Human plasma [1]
  Human Plasma Anticoagulation 2× Clotting time APTT: 180 ng/mL
Bovine trypsin
  Kass Trypsin: 4.6 × 10^6 (L/mole)
Human Thrombin; [4]
  Kass Human Thrombin: 120 × 10^6 (L/mole)
Human plasma [2]
  Human Plasma Anticoagulation 2× Clotting time PT: 270 ng/mL
Human plasma [3]
  Human Plasma Anticoagulation 2× Clotting time TT: 7.9 ng/mL

## N=C(N)c1ccc(CNC(=O)[C@@H]2CCCN2C(=O)[C@@H](CC2CCCCC2)NCC(=O)O)nn1 [Example 69, HO2 CCH2 -D-Cha-Pro-3-NHCH2 -6-amidinopyridazine.HCl]
Human plasma [1]
  Human Plasma Anticoagulation 2× Clotting time APTT: 110 ng/mL
Bovine trypsin
  Kass Trypsin: 3.7 × 10^6 (L/mole)
Human Thrombin; [4]
  Kass Human Thrombin: 340 × 10^6 (L/mole)
Human plasma [2]
  Human Plasma Anticoagulation 2× Clotting time PT: 220 ng/mL
Human plasma [3]
  Human Plasma Anticoagulation 2× Clotting time TT: 5 ng/mL

## N=C(N)N1CC=C(CNC(=O)[C@@H]2CCCN2C(=O)[C@@H](CC2CCCCC2)NCC(=O)O)CC1 [Example 70, HO2 CCH2 -D-Cha-Pro-4-NHCH2 -1-amidino-3,4-dehydro-piperidine.HCl]
Human plasma [1]
  Human Plasma Anticoagulation 2× Clotting time APTT: 160 ng/mL
Bovine trypsin
  Kass Trypsin: 9.8 × 10^6 (L/mole)
Human Thrombin; [4]
  Kass Human Thrombin: 430 × 10^6 (L/mole)
Human plasma [2]
  Human Plasma Anticoagulation 2× Clotting time PT: 180 ng/mL
Human plasma [3]
  Human Plasma Anticoagulation 2× Clotting time TT: 2 ng/mL

## N=C(N)c1ccc(CNC(=O)[C@@H]2CCCN2C(=O)[C@@H](CC2CCCCC2)NCC(=O)O)c(F)c1 [Example 71, HO2 CCH2 -D-Cha-Pro-4-NHCH2 -3-F-benzamidine.HCl]
Human plasma [1]
  Human Plasma Anticoagulation 2× Clotting time APTT: 89 ng/mL
Bovine trypsin
  Kass Trypsin: 240 × 10^6 (L/mole)
Human Thrombin; [4]
  Kass Human Thrombin: 1,400 × 10^6 (L/mole)
Human plasma [2]
  Human Plasma Anticoagulation 2× Clotting time PT: 150 ng/mL
Human plasma [3]
  Human Plasma Anticoagulation 2× Clotting time TT: 1 ng/mL

## N=C(N)c1cc(F)c(CNC(=O)[C@@H]2CCCN2C(=O)[C@@H](CC2CCCCC2)NCC(=O)O)c(F)c1 [Example 72, HO2 CCH2 -D-Cha-Pro-4-NHCH2 -3,5-F2 -benzamidine.HCl]
Human plasma [1]
  Human Plasma Anticoagulation 2× Clotting time APTT: 160 ng/mL
Bovine trypsin
  Kass Trypsin: 280 × 10^6 (L/mole)
Human Thrombin; [4]
  Kass Human Thrombin: 2,300 × 10^6 (L/mole)
Human plasma [2]
  Human Plasma Anticoagulation 2× Clotting time PT: 160 ng/mL
Human plasma [3]
  Human Plasma Anticoagulation 2× Clotting time TT: 1 ng/mL

## Nc1cc(CCNC(=O)[C@@H]2CCCN2C(=O)[C@@H](CC2CCCCC2)NCC(=O)O)ccn1 [Example 76, HO2 CCH2 -D-Cha-Pro-4-NHCH2 CH2 -2-aminopyridine.HCl]
Human plasma [1]
  Human Plasma Anticoagulation 2× Clotting time APTT: 490 ng/mL
Bovine trypsin
  Kass Trypsin: 0.36 × 10^6 (L/mole)
Human Thrombin; [4]
  Kass Human Thrombin: 12 × 10^6 (L/mole)
Human plasma [2]
  Human Plasma Anticoagulation 2× Clotting time PT: 560 ng/mL
Human plasma [3]
  Human Plasma Anticoagulation 2× Clotting time TT: 29 ng/mL

## NCc1ccc(CNC(=O)[C@@H]2CCCN2C(=O)[C@@H](CC2CCCCC2)NCC(=O)O)cc1 [Example 78, HO2 CCH2 -D-Cha-pro-4-NHCH2 C6 H4 CH2 NH2.HCl]
Human plasma [1]
  Human Plasma Anticoagulation 2× Clotting time APTT: 430 ng/mL
Bovine trypsin
  Kass Trypsin: 8.6 × 10^6 (L/mole)
Human Thrombin
  Kass Human Thrombin: 11
Human plasma [2]
  Human Plasma Anticoagulation 2× Clotting time PT: 760 ng/mL
Human plasma [3]
  Human Plasma Anticoagulation 2× Clotting time TT: 46 ng/mL

## NCC1CCC(CNC(=O)[C@@H]2CCCN2C(=O)[C@@H](CC2CCCCC2)NCC(=O)O)CC1 (stereo partly drawn) [Example 79, HO2 CCH2 -D-Cha-Pro-4-NHCH2 C6 H10 CH2 NH2.HCl]
Human plasma [1]
  Human Plasma Anticoagulation 2× Clotting time APTT: 1,700 ng/mL
Bovine trypsin
  Kass Trypsin: 0.24 × 10^6 (L/mole)
Human Thrombin; [4]
  Kass Human Thrombin: 2.0 × 10^6 (L/mole)
Human plasma [2]
  Human Plasma Anticoagulation 2× Clotting time PT: 2,400 ng/mL
Human plasma [3]
  Human Plasma Anticoagulation 2× Clotting time TT: 140 ng/mL

## CCS(=O)(=O)N[C@H](CC1CCCCC1)C(=O)N1CCC[C@H]1C(=O)NCc1ccc(C(=N)N)cc1.Cl [Example 80, EtSO2 -D-Cha-Pro-4-NHCH2 C6 H4 C(NH)NH2.HCl]
Human plasma [1]
  Human Plasma Anticoagulation 2× Clotting time APTT: 40 ng/mL
Bovine trypsin
  Kass Trypsin: 90 × 10^6 (L/mole)
Human Thrombin; [4]
  Kass Human Thrombin: 1,700 × 10^6 (L/mole)
Human plasma [2]
  Human Plasma Anticoagulation 2× Clotting time PT: 130 ng/mL
Human plasma [3]
  Human Plasma Anticoagulation 2× Clotting time TT: 4 ng/mL

## CCS(=O)(=O)N[C@H](CC1CCCCC1)C(=O)N1CCC[C@H]1C(=O)NCc1ccc(CN)cc1 [Example 81, EtSO2 -D-Cha-Pro-4-NHCH2 C6 H4 CH2 NH2.HCl]
Human plasma [1]
  Human Plasma Anticoagulation 2× Clotting time APTT: 1,500 ng/mL
Bovine trypsin
  Kass Trypsin: 2.1 × 10^6 (L/mole)
Human Thrombin; [4]
  Kass Human Thrombin: 5.3 × 10^6 (L/mole)
Human plasma [2]
  Human Plasma Anticoagulation 2× Clotting time PT: 2,700 ng/mL
Human plasma [3]
  Human Plasma Anticoagulation 2× Clotting time TT: 110 ng/mL

## CCS(=O)(=O)N[C@H](CC1CCCCC1)C(=O)N1CCC[C@H]1C(=O)NCc1ccnc(N)c1 [Example 83, EtSO2 -D-Cha-Pro-4-NHCH2 -2-aminopyridine.HCl]
Human plasma [1]
  Human Plasma Anticoagulation 2× Clotting time APTT: 1,000 ng/mL
Bovine trypsin
  Kass Trypsin: 0.03 × 10^6 (L/mole)
Human Thrombin; [4]
  Kass Human Thrombin: 2.4 × 10^6 (L/mole)
Human plasma [2]
  Human Plasma Anticoagulation 2× Clotting time PT: 1,300 ng/mL
Human plasma [3]
  Human Plasma Anticoagulation 2× Clotting time TT: 91 ng/mL

## CCS(=O)(=O)N[C@H](CC1CCCCC1)C(=O)N1CCC[C@H]1C(=O)NCc1ccc(N)nc1 [Example 84, EtSO2 -D-Cha-Pro-5-NHCH2 -2-aminopyridine.HCl]
Human plasma [1]
  Human Plasma Anticoagulation 2× Clotting time APTT: 1,500 ng/mL
Bovine trypsin
  Kass Trypsin: 0.07 × 10^6 (L/mole)
Human Thrombin; [4]
  Kass Human Thrombin: 2.9 × 10^6 (L/mole)
Human plasma [2]
  Human Plasma Anticoagulation 2× Clotting time PT: 1,900 ng/mL
Human plasma [3]
  Human Plasma Anticoagulation 2× Clotting time TT: 110 ng/mL
